According to article PMC9827108 (Cancer Discovery, 2022):
Read-outs that look alike come from different tables or passages of the source.

What was measured:
[1] = tested on: patients with EGFRm, MET-amplified/overexpressed NSCLC; type: in vivo, human
[2] = type: in vivo, human; settings: Parts B and D

SMILES | Any AE grade ≥3 possibly causally related to the labelled drug(s) only ([1]; All Part B) | Any AE leading to discontinuation of the labelled drug ([1]; All Part B) | Any AE leading to interruption or reduction of the labelled drug ([1]; All Part B) | Any SAE leading to discontinuation of the labelled drug ([1]; All Part B) | Any SAE leading to interruption or reduction of the labelled drug ([1]; All Part B) | Any SAE possibly causally related to the labelled drug(s) only ([1]; All Part B) | Labelled drug discontinued due to possibly causally related AE: vomiting ([1]; All Part B) | Any AE grade ≥3 possibly causally related to the labelled drug(s) only ([1]; Part B1) | Any AE leading to discontinuation of the labelled drug ([1]; Part B1) | Any AE leading to interruption or reduction of the labelled drug ([1]; Part B1) | Any SAE leading to discontinuation of the labelled drug ([1]; Part B1) | Any SAE leading to interruption or reduction of the labelled drug ([1]; Part B1) | Any SAE possibly causally related to the labelled drug(s) only ([1]; Part B1) | Any AE grade ≥3 possibly causally related to the labelled drug(s) only ([1]; Part B2) | Any AE leading to discontinuation of the labelled drug ([1]; Part B2) | Any AE leading to interruption or reduction of the labelled drug ([1]; Part B2) | Any SAE leading to discontinuation of the labelled drug ([1]; Part B2) | Any SAE leading to interruption or reduction of the labelled drug ([1]; Part B2) | Any SAE possibly causally related to the labelled drug(s) only ([1]; Part B2) | Any AE grade ≥3 possibly causally related to the labelled drug(s) only ([1]; Part B3) | further results
C=CC(=O)Nc1cc(Nc2nccc(-c3cn(C)c4ccccc34)n2)c(OC)cc1N(C)CCN(C)C [osimertinib] | 8 (6) n (%) | 24 (17) n (%) | 59 (43%) n (%) | 20 (14) n (%) | 27 (20) n (%) | 0 n (%) | 2 (1%) n (%) | 3 (4) n (%) | 12 (17) n (%) | 22 (32) n (%) | 9 (13) n (%) | 10 (14) n (%) | 0 n (%) | 3 (6) n (%) | 9 (18) n (%) | 25 (49) n (%) | 8 (16) n (%) | 11 (22) n (%) | 0 n (%) | 2 (11) n (%) | Labelled drug discontinued due to possibly causally related AE: pneumonitis ([1]; All Part B): 3 (2%) n (%); Any AE leading to interruption or reduction of the labelled drug ([1]; All Part B, listed as Osimertinib): 59 (43) n (%); Any AE leading to discontinuation of the labelled drug ([1]; Part B3): 3 (17) n (%); Any AE leading to interruption or reduction of the labelled drug ([1]; Part B3): 12 (67) n (%); Any SAE leading to discontinuation of the labelled drug ([1]; Part B3): 3 (17) n (%); Any SAE leading to interruption or reduction of the labelled drug ([1]; Part B3): 6 (33) n (%); Any SAE possibly causally related to the labelled drug(s) only ([1]; Part B3): 0 n (%); Any AE grade ≥3 possibly causally related to the labelled drug(s) only ([1]; Part D): 2 (5) n (%); Any AE leading to discontinuation of the labelled drug ([1]; Part D): 8 (19) n (%); Any AE leading to interruption or reduction of the labelled drug ([1]; Part D): 13 (31) n (%); Any SAE leading to discontinuation of the labelled drug ([1]; Part D): 2 (5) n (%); Any SAE leading to interruption or reduction of the labelled drug ([1]; Part D): 10 (24) n (%); Any SAE possibly causally related to the labelled drug(s) only ([1]; Part D): 1 (2) n (%)
C[C@@H](c1ccc2nccn2c1)n1nnc2ncc(-c3cnn(C)c3)nc21 [savolitinib, (S)-1-(1-(Imidazo[1,2-a]pyridin-6-yl)ethyl)-6-(1-methyl-1H-pyrazol-4-yl)-1H-[1,2, 3]triazolo[4,5-b]pyrazine] | 34 (25) n (%) | 49 (36) n (%) | 61 (44%) n (%) | 28 (20) n (%) | 20 (14) n (%) | 15 (11) n (%) | 4 (3%) n (%) | 14 (20) n (%) | 19 (28) n (%) | 27 (39) n (%) | 11 (16) n (%) | 9 (13) n (%) | 6 (9) n (%) | 13 (25) n (%) | 20 (39) n (%) | 25 (49) n (%) | 11 (22) n (%) | 9 (18) n (%) | 6 (12) n (%) | 7 (39) n (%) | Accumulation and time dependence of PK at steady state ([2]; multiple dosing): neither apparent accumulation nor time-dependent PK changes upon multiple dosing; half-life ([2]; human, plasma, oral, Mean terminal elimination half-life (t1/2λz), single and multiple dosing): 2 to 4 h; Tmax ([2]; human, plasma, oral, Median tmax and tssmax, savolitinib 600 mg/300 mg q.d. + osimertinib 80 mg q.d.): 2 to 4 h; Any AE leading to interruption or reduction of the labelled drug ([1]; All Part B, listed as Savolitinib): 61 (44) n (%); Deaths due to AEs considered possibly causally related to study drug ([1]; Part B2): one case was considered possibly related to savolitinib (acute renal failure); Any AE leading to discontinuation of the labelled drug ([1]; Part B3): 10 (56) n (%); Any AE leading to interruption or reduction of the labelled drug ([1]; Part B3): 9 (50) n (%); Any SAE leading to discontinuation of the labelled drug ([1]; Part B3): 6 (33) n (%); Any SAE leading to interruption or reduction of the labelled drug ([1]; Part B3): 2 (11) n (%); Any SAE possibly causally related to the labelled drug(s) only ([1]; Part B3): 3 (17) n (%); Any AE grade ≥3 possibly causally related to the labelled drug(s) only ([1]; Part D): 5 (12) n (%); Any AE leading to discontinuation of the labelled drug ([1]; Part D): 15 (36) n (%); Any AE leading to interruption or reduction of the labelled drug ([1]; Part D): 16 (38) n (%); Any SAE leading to discontinuation of the labelled drug ([1]; Part D): 6 (14) n (%); Any SAE leading to interruption or reduction of the labelled drug ([1]; Part D): 7 (17) n (%); Any SAE possibly causally related to the labelled drug(s) only ([1]; Part D): 2 (5) n (%); Labelled drug discontinued due to possibly causally related AE: myalgia ([1]; Part D): 3 (7%) n (%); Labelled drug discontinued due to possibly causally related AE: pyrexia ([1]; Part D): 2 (5%) n (%); Labelled drug discontinued due to possibly causally related AE: rash ([1]; Part D): 2 (5%) n (%)
